Laboratory results published in US8741957B2, “Alpha-aminoamide derivatives useful in the treatment of cognitive disorders” (priority 2006, dated 2014).

Columns and labels:
[1] = system: patients with PD-related Dementia (PDD); settings: cited from earlier work
[2] = in vivo; cited from earlier work
[3] = system: non demented patients with early PD; experiment: Cogtest cognitive battery in double blind Phase III study, safinamide added to a dopamine agonist; format: in vivo, human
Excerpt: Cogtest® (Computerized Cognitive Test Battery for Clinical Trials) is designed to provide with the highest quality computerised cognitive tests for use in clinical trials. All cognitive tests in the Cogtest® battery have been developed by academic neuropsychologists and clinical trials specialists. This ensures that the most recent developments in cognitive neuroscience, including neurophysiological, functioning neuroimaging and pharmacogenic evidence are incorporated into the Cogtest® library of procedures and into pharmaceutical clinical trials.
The Cogtest PD battery has been prepared, based on a review of the available tests in the Cogtest library and selection of those tests that would most usefully comprise a battery suitable for Parkinson's Disease. However the same tasks are used in other pathological conditions for testing the two main domains of cognition, reaction time and power.
The battery takes from 20-30 minutes to administer, and is applicable across different cultures and countries. The following tests were included in the battery:
The Auditory Number Sequencing task is a test of working memory and executive function. The participant will be presented with clusters of numbers (e.g. 936) of increasing length (from 2 digits to a maximum of 8 digits). They will be asked to tell the tester the numbers in order, from lowest to highest. […]
This test is similar to the paper-and-pencil ‘cancellation’ tests or the cross-out’ subtest of the WAIS-III, where subjects are required to crossout target stimuli embedded among distracters. […] The variables measured are: Total Experiment Time (from the end of the ‘Get ready’ screen to the end of the last response, in msec), Total Correct responses, Total Perseverative Errors (erroneous pressing of the shape that was the target of the last set, but is not for this set), Strategic efficiency variable (the cumulative distance of territory transversed, i.e., between the location of correct presses on screen for each set) according to literature (Weintraub, S., & Mesulam, M. M. (1987). Archives of Neurology 44 621-625). […]

glutamate receptors = settings: cited from earlier work
PD patients = settings: after 3 month treatment; cited from earlier work
MAO-B = target: T1, MAO-B (Homo sapiens, UniProt P27338); settings: cited from earlier work
T1 sequence (P27338 1-520): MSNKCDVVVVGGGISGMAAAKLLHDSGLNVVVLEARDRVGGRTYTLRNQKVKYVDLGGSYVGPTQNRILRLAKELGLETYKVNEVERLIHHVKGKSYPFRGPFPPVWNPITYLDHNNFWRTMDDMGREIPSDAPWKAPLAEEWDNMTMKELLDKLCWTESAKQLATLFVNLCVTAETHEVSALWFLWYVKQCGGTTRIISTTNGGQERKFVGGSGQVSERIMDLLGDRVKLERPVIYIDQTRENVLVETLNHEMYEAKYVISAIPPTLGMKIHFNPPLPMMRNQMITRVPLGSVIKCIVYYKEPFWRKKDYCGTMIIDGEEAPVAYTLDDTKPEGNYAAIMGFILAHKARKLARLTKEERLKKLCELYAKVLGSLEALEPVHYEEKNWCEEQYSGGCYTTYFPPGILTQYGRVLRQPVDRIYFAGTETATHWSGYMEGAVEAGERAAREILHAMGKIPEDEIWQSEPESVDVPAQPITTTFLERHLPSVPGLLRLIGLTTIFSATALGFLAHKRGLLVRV

[4] = system: non demented patients with early PD; experiment: UPDRS motor scores in six month double blind clinical trial; format: in vivo, human; settings: safinamide associated to a dopamine agonist, compared to the group treated with the DA alone
Protocol: A double blind Phase III study, placebo controlled, parallel-group, randomized, multinational was conducted comparing 2 oral doses of Safinamide versus placebo. The placebo group was constituted by patients treated with a stable dose of a dopamine agonist. The dopamine agonist could have been any of the ones used in clinical practice, according to clinical procedures in the different countries. 269 patients (˜90 per arm), were enrolled and treated for six months. Primary efficacy variable was UPDRS III. All the randomized patients were tested for cognitive impairment with Cogtest at Screening, Baseline, week 12 and week 24 (or early discontinuation).

normal rats = settings: safinamide per se; cited from earlier work
glutamate release = settings: in condition of pathological glutamate overflow; cited from earlier work
animal models = settings: cited from earlier work
MAO-A = target: T2, MAO-A (Homo sapiens, UniProt P21397); settings: cited from earlier work
T2 sequence (P21397 1-527): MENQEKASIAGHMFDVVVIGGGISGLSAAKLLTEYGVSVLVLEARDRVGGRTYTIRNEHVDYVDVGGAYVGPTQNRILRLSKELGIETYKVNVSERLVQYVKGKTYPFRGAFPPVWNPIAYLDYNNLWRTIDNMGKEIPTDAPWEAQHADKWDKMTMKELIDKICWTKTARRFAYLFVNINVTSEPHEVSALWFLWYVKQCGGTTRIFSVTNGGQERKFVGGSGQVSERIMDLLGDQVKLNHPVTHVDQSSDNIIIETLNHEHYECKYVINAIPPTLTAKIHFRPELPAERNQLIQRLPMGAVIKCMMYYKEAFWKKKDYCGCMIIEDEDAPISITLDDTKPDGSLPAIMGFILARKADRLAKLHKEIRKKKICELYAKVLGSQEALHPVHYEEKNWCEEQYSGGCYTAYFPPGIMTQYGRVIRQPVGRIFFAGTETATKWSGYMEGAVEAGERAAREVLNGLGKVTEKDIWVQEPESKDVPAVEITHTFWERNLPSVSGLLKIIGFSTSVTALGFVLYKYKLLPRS

cholinesterase = settings: cited from earlier work
mild PD patients = settings: in comparison to levodopa; cited from earlier work
[5] = system: early and moderate-to-advanced PD patients; settings: 1 mg dose once daily; cited from earlier work
[6] = system: early-mild Parkinson's Disease; settings: after eight weeks (end of study); cited from earlier work
[7] = literature reports; cited from earlier work

In the case of `CCN(C)C(=O)Oc1cccc([C@H](C)N(C)C)c1` [rivastigmine], the “subjective worsening of tremor reported” value ([1]; in vivo) is given as 1.7%, the “patients dropped out due to adverse events” value ([1]; most commonly due to nausea) is given as 17% and the “response on primary (ADAS-Cog, Clinical Global Impression of Change) and all secondary outcome measures” value ([1]; versus placebo, differences were moderate) is given as “responded better”.
For `CN1CCc2cccc3c2[C@H]1Cc1ccc(O)c(O)c1-3` [apomorphine], the “reaction times in visual-spatial working memory (WM)” value [2] is given as “negative effect”.
For `C[C@H](NCc1ccc(OCc2cccc(F)c2)cc1)C(N)=O` [safinamide, (S)-(+)-2-[4-(3-fluorobenzyloxy)-benzylamino]-propanamide], the “several cognitive variables (Cogtest), change from baseline” value ([3]; both groups, low and high dose of safinamide, with a stable dose of a DA, three and six months evaluation times, most marked for executive function) was “significant improvement from baseline”, the “Strategic Target Detection test, observed score (Z-score)” value ([3]; both treated groups (low and high dose of safinamide), from baseline to both three and six months) was “significant improvement” and the “cognition compared with DA alone (control group) and with pretreatment” value ([3]; safinamide associated to a dopamine agonist, check at three and six months after start of treatment) was “ameliorate cognitive worsening observed in controls and/or improve cognition as compared to pretreatment”. The “affinity for any of the glutamate receptors” value (glutamate receptors) was “no affinity”, the UPDRS scores (PD patients) was “significantly ameliorated” and the MAO-B inhibition (MAO-B) was “selective MAO-B inhibitor”. For the same compound, the “UPDRS scores (motor symptoms)” value [4] was “significantly ameliorate”, the “cognition in the rat passive avoidance test” value (normal rats) was “does not ameliorate cognition” and the glutamate release inhibition (glutamate release) was “glutamate release inhibitor”. The “long term neuroprotective effects” value (animal models) was “demonstrated”, the “activity on MAO-A” value (MAO-A) was “devoid of activity” and the cholinesterase inhibition (cholinesterase) was “not cholinesterase inhibitors”.
In the case of `CCCN[C@H]1CCc2nc(N)sc2C1` [pramipexole], the “short term verbal memory and attentional-executive functions” value (mild PD patients) is listed as “impaired” and the verbal fluency (mild PD patients) is listed as “slightly but significantly worsened”.
For `C#CCN[C@@H]1CCc2ccccc21` [rasagiline], the “occurrence of cognitive and behavioural adverse events” value [5] is given as “without significantly increasing” and the “symptoms of PD, including motor fluctuations” value [5] is given as “improved”.
For `CCCN1C[C@H](CSC)C[C@@H]2c3cccc4[nH]cc(c34)C[C@H]21` [pergolide], the cognitive test scores [6] is listed as “without showing amelioration”.
In the case of `N[C@@H](Cc1ccc(O)c(O)c1)C(=O)O` [levodopa], the effect on cognition [7] is given as “no effect on cognition, or even impairment”.
